Results published in patent USRE32333E, “A-21978 Antibiotics and process for their production” (priority 1985, dated 1987).
≈ marks a conversion by molar mass, not a printed value. Where “and” joins values, the source holds several entries; their conditions need not be identical. Identical values can stand only once. Like-named read-outs stand apart in the source and are kept apart here.

Experiments:
[1] = tested on: Staphylococcus aureus 3055; test: MIC, standard agar-dilution test (Table XI); type: cell-based; details: aerobic, S. aureus 3055, sodium salt form
[2] = tested on: Group D Streptococcus 282; test: MIC, standard agar-dilution test (Table XI); type: cell-based; details: aerobic, sodium salt form
[3] = tested on: Streptococcus pyogenes C203; test: MIC, standard agar-dilution test (Table XI); type: cell-based; details: aerobic, S. pyogenes C203, sodium salt form
[4] = tested on: Streptococcus pneumoniae Park I; test: MIC, standard agar-dilution test (Table XI); type: cell-based; details: aerobic, S. pneumoniae Park I, sodium salt form
[5] = tested on: Viridans Streptococcus 9943; test: MIC, standard agar-dilution test (Table XI); type: cell-based; details: aerobic, sodium salt form
[6] = tested on: Neisseria gonorrhoeae 111076-4; test: MIC, standard agar-dilution test (Table XI); type: cell-based; details: aerobic, N. gonorrhoeae 111076-4, sodium salt form
[7] = tested on: Staphylococcus aureus 3055; test: MIC, standard broth-dilution test (Table XII); type: cell-based; details: aerobic, S. aureus 3055
[8] = tested on: Group D Streptococcus 282; test: MIC, standard broth-dilution test (Table XII); type: cell-based; details: aerobic
[9] = tested on: Streptococcus pyogenes C203; test: MIC, standard broth-dilution test (Table XII); type: cell-based; details: aerobic, S. pyogenes C203
[10] = tested on: Streptococcus pneumoniae Park I; test: MIC, standard broth-dilution test (Table XII); type: cell-based; details: aerobic, S. pneumoniae Park I
[11] = tested on: Viridans Streptococcus 9943; test: MIC, standard broth-dilution test (Table XII); type: cell-based; details: aerobic
[12] = tested on: Staphylococcus aureus; test: MIC against clinical isolates, ICS agar-dilution (Table XIII); type: cell-based; details: 10 clinical isolates, bracket = number of isolates with this MIC or range
[13] = tested on: Staphylococcus epidermidis; test: as above; type: cell-based; details: 12 clinical isolates, bracket = number of isolates with this MIC or range
[14] = tested on: Actinomyces israelii; test: MIC against anaerobic bacteria, standard agar-dilution (Table XIV); type: cell-based; details: anaerobe
[15] = tested on: Clostridium septicum; test: as above; type: cell-based; details: anaerobe
[16] = tested on: Eubacterium aerofaciens; test: as above; type: cell-based; details: anaerobe
[17] = tested on: Peptococcus asaccharolyticus; test: as above; type: cell-based; details: anaerobe
[18] = tested on: Peptococcus prevoti; test: as above; type: cell-based; details: anaerobe
[19] = tested on: Peptostreptococcus anaerobius; test: as above; type: cell-based; details: anaerobe
[20] = tested on: Peptostreptococcus intermedius; test: as above; type: cell-based; details: anaerobe
[21] = tested on: Propionibacterium acnes; test: as above; type: cell-based; details: anaerobe
[22] = tested on: Bacteroides fragilis; test: as above; type: cell-based; details: anaerobe
[23] = tested on: Fusobacterium symbiosum; test: as above; type: cell-based; details: anaerobe
[24] = tested on: Fusobacterium necrophorum; test: as above; type: cell-based; details: anaerobe
[25] = tested on: Staphylococcus aureus; test: MIC, agar dilution (Table XV); type: cell-based
Description: (§1) ^1 MIC = minimum inhibitory concentration (μg/ml), agar dilution

[26] = tested on: Streptococcus pneumoniae; test: MIC, agar dilution (Table XV); type: cell-based
Description: as §1

[27] = tested on: Streptococcus pyogenes; test: MIC, agar dilution (Table XV); type: cell-based
Description: as §1

[28] = tested on: Staphylococcus aureus; test: Experimental bacterial infection in mice, ED50; type: in vivo; details: S. aureus infection, two doses, subcutaneous administration
Procedure: (§2) When two doses of test compound were administered to mice in illustrative infections, the activity observed as measured as an ED50 value [effective dose in mg/kg to protect fifty percent of the test animals: See Warren Wick, et al., J. Bacteriol, 81, 233-235 (1961)].

[29] = tested on: Streptococcus pneumoniae; test: Experimental bacterial infection in mice, ED50; type: in vivo; details: S. pneumoniae infection, two doses, subcutaneous administration
Procedure: as §2

[30] = tested on: Streptococcus pyogenes; test: Experimental bacterial infection in mice, ED50; type: in vivo; details: S. pyogenes infection, two doses
Procedure: as §2

[31] = tested on: Streptococcus faecalis (Guze); test: In vitro susceptibility (MIC) of the S. faecalis Guze strain; type: cell-based
Description: ^1 In vitro susceptibility of the S. faecalis Guze strain

[32] = Electrometric titration in 66% aqueous dimethylformamide; type: physicochemical; details: 66% DMF, Na salt forms; factors: two determinations
[33] = tested on: Clostridium perfringens; details: anaerobe, agar-dilution
[34] = Mouse
[35] = Rat, IV
[36] = tested on: Micrococcus luteus; test: Paper-disc agar-diffusion bioassay; details: individual factors, Na salts
[37] = tested on: Streptococcus faecalis (Guze); test: Streptococcus faecalis descending rat pyelonephritis test; details: 1.0 mg/kg x 7 subcutaneous; for Percent of Rats Cured: cure = kidney counts less than 10^2 per g; for Percent of Rats with a 4-Log Titer Decrease: once daily, kidney titer vs infected controls
[38] = tested on: Viridans Streptococcus; test: MIC against clinical isolates, ICS agar-dilution (Table XIII); type: cell-based; details: 2 clinical isolates, bracket = number of isolates with this MIC or range

CCC(C)CCCCCCC(=O)N[C@@H](Cc1c[nH]c2ccccc12)C(=O)NC(CC(N)=O)C(=O)N[C@@H](CC(=O)O)C(=O)N[C@@H]1C(=O)NCC(=O)N[C@@H](CCCN)C(=O)N[C@@H](CC(=O)O)C(=O)N[C@H](C)C(=O)N[C@@H](CC(=O)O)C(=O)NCC(=O)N[C@H](CO)C(=O)N[C@@H]([C@H](C)CC(=O)O)C(=O)N[C@@H](CC(=O)c2ccccc2N)C(=O)O[C@@H]1C (stereo in doubt) [Factor C1]
MIC [1]: 0.5 µg/mL
MIC [2]: 1.0 µg/mL
MIC [3]: 0.13 µg/mL
MIC [4]: 0.13 µg/mL
MIC [5]: 0.5 µg/mL
MIC [6]: 16.0 µg/mL
MIC [7]: 1.0 µg/mL (≈ 0.612 µM)
MIC [8]: 2.0 µg/mL (≈ 1.22 µM)
MIC [9]: 0.5 µg/mL (≈ 0.306 µM)
MIC [10]: 2.0 µg/mL (≈ 1.22 µM)
MIC [11]: 32.0 µg/mL (≈ 19.6 µM)
Minimum Inhibitory Concentration [12]: 0.5 µg/mL
Minimum Inhibitory Concentration [13]: 0.13 to 0.25 µg/mL
MIC [14]: 4 µg/mL (≈ 2.45 µM)
MIC [15]: 4 µg/mL (≈ 2.45 µM)
MIC [16]: 16 µg/mL (≈ 9.79 µM)
MIC [17]: 4 µg/mL (≈ 2.45 µM)
MIC [18]: 2 µg/mL (≈ 1.22 µM)
MIC [19]: 2 µg/mL (≈ 1.22 µM)
MIC [20]: 4 µg/mL (≈ 2.45 µM)
MIC [21]: 8 µg/mL (≈ 4.89 µM)
MIC [22]: > 128 µg/mL
MIC [23]: > 128 µg/mL
MIC [24]: 64 µg/mL (≈ 39.2 µM)
MIC [25]: 0.5 µg/mL (≈ 0.306 µM)
MIC [26]: 0.13 µg/mL (≈ 0.0795 µM)
MIC [27]: 0.13 µg/mL (≈ 0.0795 µM)
ED50 [28]: 0.22 mg/kg
ED50 [29]: 0.3 mg/kg
ED50 ([30]; oral administration): 93 mg/kg
ED50 ([30]; subcutaneous administration): 0.064 mg/kg
MIC [31]: 1.0 µg/mL (≈ 0.612 µM)
pKa Values (first group) [32]: 5.7 and 5.9
MIC [33]: 16 µg/mL (≈ 9.79 µM)
LD50 ([34]; IV): > 250 mg/kg
LD50 ([34]; SC): > 365 mg/kg
LD50 [35]: 479 ± 32 mg/kg
Bioassay (Micrococcus luteus) [36]: 1663 units/mg
Percent of Rats Cured [37]: 50
Percent of Rats with a 4-Log Titer Decrease [37]: 50

CCC(C)CCCCCCCCC(=O)NC(Cc1c[nH]c2ccccc12)C(=O)NC(CC(N)=O)C(=O)NC(CC(=O)O)C(=O)NC1C(=O)NCC(=O)NC(CCCN)C(=O)NC(CC(=O)O)C(=O)NC(C)C(=O)NC(CC(=O)O)C(=O)NCC(=O)NC(CO)C(=O)NC(C(C)CC(=O)O)C(=O)NC(CC(=O)c2ccccc2N)C(=O)OC1C (stereo not drawn) [Factor C3]
MIC [1]: 0.06 µg/mL
MIC [2]: 0.13 µg/mL
MIC [3]: 0.25 µg/mL
MIC [4]: 0.13 µg/mL
MIC [5]: 0.5 µg/mL
MIC [6]: 4.0 µg/mL
MIC [7]: 0.13 µg/mL (≈ 0.0782 µM)
MIC [8]: 0.13 µg/mL (≈ 0.0782 µM)
MIC [9]: 0.13 µg/mL (≈ 0.0782 µM)
MIC [10]: .5 µg/mL (≈ 0.301 µM)
MIC [11]: 32.0 µg/mL (≈ 19.2 µM)
Minimum Inhibitory Concentration [12]: 0.06 to 0.12 µg/mL
Minimum Inhibitory Concentration [38]: 0.5 µg/mL
MIC [14]: 1.0 µg/mL (≈ 0.601 µM)
MIC [15]: 1.0 µg/mL (≈ 0.601 µM)
MIC [16]: 4 µg/mL (≈ 2.41 µM)
MIC [17]: 1.0 µg/mL (≈ 0.601 µM)
MIC [18]: < 0.5 µg/mL
MIC [19]: 1.0 µg/mL (≈ 0.601 µM)
MIC [20]: < 0.5 µg/mL
MIC [21]: 1.0 µg/mL (≈ 0.601 µM)
MIC [22]: > 128 µg/mL
MIC [23]: 16 µg/mL (≈ 9.62 µM)
MIC [24]: 32 µg/mL (≈ 19.2 µM)
MIC [25]: 0.06 µg/mL (≈ 0.0361 µM)
MIC [26]: 0.03 µg/mL (≈ 0.018 µM)
MIC [27]: 0.06 µg/mL (≈ 0.0361 µM)
ED50 [28]: 0.08 mg/kg
ED50 [29]: 0.09 mg/kg
ED50 ([30]; oral administration): 66 mg/kg
ED50 ([30]; subcutaneous administration): 0.032 mg/kg
MIC [31]: 0.13 µg/mL (≈ 0.0782 µM)
pKa Values (first group) [32]: 5.73 and 5.75
pKa Values (second group) [32]: 7.54 and 7.58
MIC [33]: 8 µg/mL (≈ 4.81 µM)
LD50 ([34]; IV): < 50 mg/kg
LD50 ([34]; SC): 70 to 75 mg/kg
LD50 [35]: < 160 mg/kg
Bioassay (Micrococcus luteus) [36]: 803 units/mg
Percent of Rats Cured [37]: 78
Percent of Rats with a 4-Log Titer Decrease [37]: 78
